Holding throughout (assay): SPR binding of MBP-PDZ analyte to immobilised biotinylated peptides
The target in one test is T1, SCRIB-3/4 PDZ domain (Homo sapiens, UniProt Q14160).
T1 construct: cDNA bearing residues 997–1093, 1097–1193 and 997–1193 of human SCRIB (Uniprot acc.: Q14160-1); made in house; host or cells: E. coli BL21 DE3
T1 sequence (Q14160 997-1093 isoform Q14160-1): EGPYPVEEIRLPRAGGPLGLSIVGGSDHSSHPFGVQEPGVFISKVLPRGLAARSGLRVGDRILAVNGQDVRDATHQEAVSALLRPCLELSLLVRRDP
The note with it: SPR Biacore 2000, 25 C, steady state, 1:1 binding isotherm, MBP-PDZ 0-30 µM, to be considered with caution. The procedure: (§1) We opted for the surface plasmon resonance (SPR) method to measure these 190 (19 proteins×2 peptide versions×5 PDZ constructs) interactions. In SPR various concentrations of “analytes” (here, PDZ domains fused to the Maltose Binding Protein (MBP)) flow over surfaces presenting attached “ligands” (here, biotinylated peptides). The amount of analyte interacting with the ligand is measured and quantified in response units (RU). The intensity of this signal is proportional to the binding strength of the assayed interaction (Figure 5A). K [drawing 13] were obtained using a 1∶1 interaction model. However, these calculated K [drawing 14] were rather inaccurate especially for weak interactions. Therefore, we preferred to rank the binding strengths of the 190 interactions using normalised RU signals at equilibrium ( [drawing 15] ) rather than K [drawing 16] (see Methods for details). These normalised [drawing 17] values were plotted in form of a heat map (Figure 5B).
(§2) The cDNA encoding residues 448–572 and 613–752 of mouse MAGI-1 (UniProt acc.: Q6RHR9-1) encoding for MAGI1-2/6 (100% identical to human MAGI1-2/6) and MAGI1-3/6 (99% identical to human MAGI1-3/6) PDZ domains, respectively, were inserted into the NcoI/KpnI sites of the pETM-41 expression vector (EMBL) containing a 6×His-MBP tag followed by a TEV protease cleavage site. A similar cloning strategy was adopted for cDNA bearing residues 997–1093, 1097–1193 and 997–1193 of human SCRIB (Uniprot acc.: Q14160-1) encoding for SCRIB-3/4, SCRIB-4/4 PDZ domains and SCRIB-34/4 tandem PDZ construct, respectively.
(§3) Data were collected on a Biacore 2000 instrument (Biacore AB/GE Healthcare Bio-Sciences Corp., Piscataway, NJ, USA) at 25 [drawing 74] C. SPR experiments (ligand immobilisation and binding measurements) have been performed as described in Fournane et al.. Briefly, biotinylated peptides (instead of GST-fused recombinant peptides) were immobilised on CM5 sensorchips on which Neutravidin was previously attached. The MBP-PDZ domain analyte was injected at 8 to 10 different concentrations ranging from 0 up to 30 [drawing 75] M. Data were processed using the BiaEvaluation 3.2 software (Biacore AB/GE Healthcare Bio-Sciences Corp.) using “double referencing” [78] in which sensorgrams were corrected for buffer effects and bulk refractive index changes.
(§4) The steady-state binding signal ( [drawing 76] ) was derived by averaging the signals in a five second window at equilibrium. Steady-state analysis was performed by fitting the average signal [drawing 77] as a function of total MBP-PDZ concentrations, assuming a simple 1∶1 interaction binding isotherm model. […] Reasons for this inaccuracy are likely to be the following: 1. As previously described, several repetitions of all the measurements are required to determine accurate K [drawing 81] . In our case, such repetitions were not achievable in reasonable time due to the large amount of interactions measured in this study. 2. The highest injected analyte concentration restricts the maximal K [drawing 82] (weakest interaction) that can be accurately obtained. 3. A K [drawing 83] is estimated based on a mathematical extrapolation of observed [drawing 84] signals leading to additional uncertainty. Based on these reasons, we considered the calculated K [drawing 85] not as accurate enough to be used for absolute binding strength comparison in this study. We rather performed a relative analysis of binding strengths using directly [drawing 86] signals which are not biased by any mathematical assumption. We focussed on [drawing 87] signals obtained at 10 [drawing 88] M MBP-PDZ concentration, which have been systematically measured in duplicate. The [drawing 89] signal is directly proportional to the molecular weight of the analyte and the amount of immobilised ligand. Therefore, the [drawing 90] signals were normalised taking those into account before being used for binding strength comparison. […]

In another test the target is T2, SCRIB-4/4 PDZ domain (Homo sapiens, UniProt Q14160).
T2 construct: residues 997–1093, 1097–1193 and 997–1193 of human SCRIB (Uniprot acc.: Q14160-1); made in house; host or cells: E. coli BL21 DE3
T2 sequence (Q14160 1097-1193 isoform Q14160-1): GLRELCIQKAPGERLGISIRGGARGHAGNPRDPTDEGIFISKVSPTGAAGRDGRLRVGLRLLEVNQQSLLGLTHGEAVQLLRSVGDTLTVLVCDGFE
The settings on record: SPR Biacore 2000, 25 C, steady state, 1:1 binding isotherm, MBP-PDZ 0-30 µM; to be considered with caution; read-out: tentative KD. The procedure:
as §1, §2, §3, §4
Background: Surface plasmon resonance follows binding to a sensor surface in real time, without labels.

Test [1] concerns the target T3, SCRIB-34/4 tandem PDZ construct (Homo sapiens, UniProt Q14160).
T3 construct: residues 997–1093, 1097–1193 and 997–1193 of human SCRIB (Uniprot acc.: Q14160-1); made in house; host or cells: E. coli BL21 DE3
T3 sequence (Q14160 997-1193 isoform Q14160-1): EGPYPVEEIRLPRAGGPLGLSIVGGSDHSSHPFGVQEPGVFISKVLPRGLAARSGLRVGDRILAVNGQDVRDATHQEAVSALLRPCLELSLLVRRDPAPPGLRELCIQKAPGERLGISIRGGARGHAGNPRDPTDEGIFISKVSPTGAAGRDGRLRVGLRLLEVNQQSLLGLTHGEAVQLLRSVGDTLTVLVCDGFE
The note with it: SPR Biacore 2000, 25 C, steady state, 1:1 binding isotherm, MBP-PDZ 0-30 µM, to be considered with caution. Here is the method:
as §1, §2, §3, §4

The target of the next test is T4, MAGI1-2/6 PDZ domain (Mus musculus, UniProt Q6RHR9).
T4 construct: The cDNA encoding residues 448–572 and 613–752 of mouse MAGI-1 (UniProt acc.: Q6RHR9-1) encoding for MAGI1-2/6; made in house; host or cells: E. coli BL21 DE3
The procedure:
as §1, §2, §3, §4

In another test the target is T5, MAGI1-3/6 PDZ domain (Mus musculus, UniProt Q6RHR9).
T5 construct: The cDNA encoding residues 448–572 and 613–752 of mouse MAGI-1 (UniProt acc.: Q6RHR9-1); made in house; host or cells: E. coli BL21 DE3
The note with it: SPR Biacore 2000, 25 C, steady state, 1:1 binding isotherm, MBP-PDZ 0-30 µM; to be considered with caution; read-out: tentative KD. The procedure: as §1, §2, §3, §4

Values joined by “and” are separate entries in the source; they are usually repeats but may differ in a detail not shown here. Identical values can stand only once. Like-named read-outs stand apart in the source and are kept apart here. Ends that are not written are not given here. Peptide text beside a SMILES is read from it. * marks the point of attachment. Biotin = O=C1N[C@H]2[C@H](CS[C@H]2CCCCC(=O)*)N1

T4 sequence (Q6RHR9 448-572): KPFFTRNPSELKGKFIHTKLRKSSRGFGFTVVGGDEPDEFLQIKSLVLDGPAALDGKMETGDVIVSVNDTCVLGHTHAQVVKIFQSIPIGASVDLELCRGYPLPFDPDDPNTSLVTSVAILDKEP
T5 sequence (Q6RHR9 613-752): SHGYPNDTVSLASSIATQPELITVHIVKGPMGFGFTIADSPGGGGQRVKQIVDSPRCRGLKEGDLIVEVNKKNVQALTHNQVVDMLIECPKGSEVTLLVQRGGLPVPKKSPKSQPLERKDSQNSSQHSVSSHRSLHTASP

For orientation: Kd means the concentration at which binding is half-saturated. As to GGWVEKETYY [ATP1A1_10], the Kd at SCRIB-3/4 PDZ domain (read-out: tentative KD) came to 88 µM. `CC(C)C[C@H](NC(=O)[C@@H](NC(=O)[C@H](CCC(=O)O)NC(=O)[C@@H]1CCCN1C(=O)CNC(=O)[C@H](C)NC(=O)CNC(=O)[C@H](CO)NC(=O)CNC(=O)CCCC[C@@H]1SC[C@@H]2NC(=O)N[C@@H]21)[C@@H](C)O)C(=O)N[C@H](C(=O)O)C(C)C` [ARHGAP6_05] (Biotin-GSGAGPETLV-OH): the Kd on SCRIB-4/4 PDZ domain is 104 µM. For the molecule NRVDSKETEC [ADAM17_10], the Kd in test [1] (read-out: tentative KD) amounted to 8 µM.

On to VMRLQSETSV [VANG2_10], for which the equilibrium dissociation constant (Kd) at SCRIB-3/4 PDZ domain (read-out: tentative KD) was found to be 12 µM; in test [1] (read-out: tentative KD), 5 µM. As for `CC[C@H](C)[C@H](NC(=O)CNC(=O)[C@H](C)NC(=O)CNC(=O)[C@H](CO)NC(=O)CNC(=O)CCCC[C@@H]1SC[C@@H]2NC(=O)N[C@@H]21)C(=O)N[C@@H](CCC(=O)O)C(=O)N[C@@H](CO)C(=O)N[C@@H](CC(N)=O)C(=O)N[C@H](C(=O)O)C(C)C` [TANC1_05] (Biotin-GSGAGIESNV-OH), the dissociation constant (Kd) in test [1] (read-out: tentative KD) stood at 9 µM. Take `CC(C)C[C@H](NC(=O)[C@H](CCC(N)=O)NC(=O)[C@@H](NC(=O)[C@H](CCC(=O)O)NC(=O)[C@H](CCCNC(=N)N)NC(=O)[C@H](CCCNC(=N)N)NC(=O)[C@@H](NC(=O)[C@H](CCCNC(=N)N)NC(=O)[C@H](CO)NC(=O)[C@@H](N)CO)[C@@H](C)O)[C@@H](C)O)C(=O)O` [16E6]: the Kd at MAGI1-2/6 PDZ domain (this study (Kd), Table S3, column this study, SPR) was 3 µM; at SCRIB-3/4 PDZ domain (tentative KD), 18 µM and 15 µM; in test [1] (tentative KD), 3 µM.

Regarding SVWLRKETRV [CYSLTR2_10], the results for the dissociation constant (Kd) (on SCRIB-4/4 PDZ domain; in test [1] (read-out: tentative KD)) were 202 µM and 15 µM, respectively. For the molecule `CC[C@H](C)[C@H](NC(=O)[C@@H](NC(=O)[C@H](CCC(=O)O)NC(=O)[C@H](Cc1c[nH]cn1)NC(=O)CNC(=O)[C@H](C)NC(=O)CNC(=O)[C@H](CO)NC(=O)CNC(=O)CCCC[C@@H]1SC[C@@H]2NC(=O)N[C@@H]21)[C@@H](C)O)C(=O)N[C@H](C(=O)O)C(C)C` [TMEM215_05] (Biotin-GSGAGHETIV-OH), the Kd in test [1] (read-out: tentative KD) was found to be 15 µM. As to SGGKRKETLV [NET1_10], the Kd on MAGI1-3/6 PDZ domain stood at 37 µM; at MAGI1-2/6 PDZ domain (Table S3, column this study, SPR, read-out: this study (Kd)) it was 3 µM. With NPDALPETLV [ARHGAP6_10], the Kd at MAGI1-2/6 PDZ domain (SPR Biacore 2000, 25 C, steady state, 1:1 binding isotherm, MBP-PDZ 0-30 µM, to be considered with caution, read-out: tentative KD) turned out to be 18 µM.

`CC[C@H](C)[C@H](NC(=O)CNC(=O)[C@H](C)NC(=O)CNC(=O)[C@H](CO)NC(=O)CNC(=O)CCCC[C@@H]1SC[C@@H]2NC(=O)N[C@@H]21)C(=O)N[C@@H](C)C(=O)N[C@H](C(=O)N[C@@H](CCC(=O)O)C(=O)N[C@H](C(=O)O)C(C)C)[C@@H](C)O` [DLL1_05] (Biotin-GSGAGIATEV-OH): the Kd on SCRIB-4/4 PDZ domain was found to be 893 µM. With `CC(C)[C@H](NC(=O)[C@H](Cc1ccc(O)cc1)NC(=O)[C@H](CO)NC(=O)[C@H](CCC(=O)O)NC(=O)[C@H](CCCCN)NC(=O)CNC(=O)[C@H](C)NC(=O)CNC(=O)[C@H](CO)NC(=O)CNC(=O)CCCC[C@@H]1SC[C@@H]2NC(=O)N[C@@H]21)C(=O)O` [ABC1_05] (Biotin-GSGAGKESYV-OH), the Kd in test [1] (read-out: tentative KD) was 10 µM.
